The text below walks through data of patent US9642819B2, “Low dosage serotonin 5-HT2A receptor agonist to suppress inflammation” (BOARD OF SUPERVISORS OF LOUISIANA STATE UNIVERSITY AND …, priority 2008, dated 2017).

In test [1] the test system is IL-6 gene expression. The experiment in a line: TNF-α induced IL-6 gene expression in primary rat aortic smooth muscle cells. Type of test: cell-based. Particulars: RASM passage 4, media with FBS, 24 h pretreatment, TNF-α 10 ng/ml, read-out: IC50 for proinflammatory gene expression inhibition for IL-6. As to the method: (§1) RASM cells and treatment. Rat aortic smooth muscle (RASM) cells were isolated from adult 180 g male Sprague-Dawley rats and provided by the Cell and Molecular Core Facility in the Department of Pharmacology at LSUHSC-NO. Isolated RASM cells were grown in M-199 media containing 10% fetal bovine serum (Gibco), 100 units/mL penicillin, and 100 µg/mL streptomycin, and incubated at 37° C. in 5% CO2. Cells for all assays were used between passages 3 and 5. Prior to treatments, cells were grown in M-199 media with 10% fetal bovine serum (FBS) until 30-50% confluent. […]
(§2) RNA isolation and Quantitative Realtime-PCR. […]
(§3) The sequences of primers used are: 5-HT2AR (5-hydroxytryptamine 2A receptor): forward primer 5′-[…]-3′ (SEQ ID NO: 1), reverse primer, 5′[…]-3′ (SEQ ID NO: 2); ICAM-1 (intracellular adhesion molecule 1): forward primer, 5′-[…]-3′ (SEQ ID NO: 3, reverse primer, 5′-[…]-3′ (SEQ ID NO: 4); VCAM-1 (vascular adhesion molecule 1): forward primer, 5′-[…]-3′ (SEQ ID NO: 5), reverse primer, 5′-[…]-3′ (SEQ ID NO: 6); IL-6 (interleukin-6): forward primer, 5′-[…] […]-3′ (SEQ ID NO: 7), reverse primer, 5′-[…]-3′ (SEQ ID NO: 8); and cyclophillin B (control amplicon): forward primer, 5′-[…]-3′ (SEQ ID NO: 9), reverse primer, 5′-[…]-3′ (SEQ ID NO: 10). […] Quantitative determination of gene expression levels using a 2-step cycling protocol was performed on a MyIQ-5 Cycler (Bio-Rad, Hercules Calif.). […]

Test [2] addresses 5-HT2A receptor (Rattus norvegicus, UniProt P14842). The settings on record: read-out: EC50 phosphoinositide turnover; standard pharmacological assay of 5-HT2A receptor activity; cited from earlier work.
For test [3], the system named is VCAM-1 gene expression. Briefly: TNF-α induced VCAM-1 gene expression in primary rat aortic smooth muscle cells. Type of test: cell-based. Particulars: RASM passage 4, media with FBS, 24 h pretreatment, TNF-α 10 ng/ml, read-out: IC50 for proinflammatory gene expression inhibition for VCAM-1. As to the method: as §1, §2, §3

Chain of 5-HT2A receptor (P14842 whole entry): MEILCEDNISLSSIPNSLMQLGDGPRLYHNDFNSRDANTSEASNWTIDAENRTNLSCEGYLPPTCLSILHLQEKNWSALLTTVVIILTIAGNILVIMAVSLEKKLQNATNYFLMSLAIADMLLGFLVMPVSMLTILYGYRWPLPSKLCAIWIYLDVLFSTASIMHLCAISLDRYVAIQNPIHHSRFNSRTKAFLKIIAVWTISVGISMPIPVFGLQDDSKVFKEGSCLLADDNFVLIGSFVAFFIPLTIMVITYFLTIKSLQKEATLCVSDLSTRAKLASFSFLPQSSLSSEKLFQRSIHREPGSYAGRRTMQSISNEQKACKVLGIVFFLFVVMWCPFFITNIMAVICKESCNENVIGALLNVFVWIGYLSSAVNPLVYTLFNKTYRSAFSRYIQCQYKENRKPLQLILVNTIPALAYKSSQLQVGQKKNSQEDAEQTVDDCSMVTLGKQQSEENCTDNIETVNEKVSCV

For `COc1cc(C[C@@H](C)N)c(OC)cc1I` [(R)-DOI, (R)-1-(2,5-dimethoxy-4-iodophenyl)-2-aminopropane], the IC50 in test [1] was 0.0103 nM; in test [3] it was 0.012 nM. Moreover, the EC50 in test [2] was 10 to 20 nM.
